The text below walks through data of patent US20250163057A1, “DCN-1 MODULATING COMPOUNDS AND METHODS OF USE THEREOF” (Cellarity, Inc., priority 2023, published 2025).

Some results are limits rather than exact numbers.

In experiment [1] the test system is Cullin-3 (CUL3) neddylation. The experiment is described as follows: AlphaLISA assay for Cullin-3 (CUL3) neddylation in TF 1 cells. The experiment is classed as cell-based. The note with it: Homo sapiens, TF-1, 3 h, 3 hours treatment. The method in brief: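 Neddylated CUL3 was quantified by AlphaLISA in lysates of TF 1 cells exposed for 3 h to test compound in IMDM without supplements. Percent inhibition set between vehicle and 1 μM DI-1548 positive control; IC50 derived by Hill-equation fitting of dose-response curves.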
A general note: In Alpha technology, singlet oxygen from a donor bead excites a nearby acceptor bead.

In experiment [2] the test system is fetal hemoglobin gene HBG1. Briefly: HBG1 Nanostring Assay in CD34+ HSPC erythroid differentiation culture. The format is cell-based, human. The note with it: for EC50: Homo sapiens, 240 h, HBG1 induction, Day10 of erythroid differentiation; for Nanostring Ymax obs (%): relative to a control compound (C1). In outline:
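HBG1 counts came from direct nCounter hybridization (67° C, 22 h) of day-10 lysates, normalized to ERCC positive controls and a housekeeping gene, giving EC50 and Ymax versus a reference compound. Compounds in 0.1% DMSO were present from day −2 while cells underwent EPO/SCF/IL-3 erythroid differentiation, with IL-3 dropped at day 7, at 37° C.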

As for `CCN1C(=O)[C@@H](NC(=O)c2cccc(C(F)(F)F)c2)[C@@H](C2CC2)c2c(C(=O)N3CC[C@H](OC)[C@H]3C#N)nn(C3CCOCC3)c21` [Compound I-418], in experiment [1], the IC50 (commonly the concentration that inhibits the measured activity by half) was at most 100 nM. For the same molecule, in experiment [2], the EC50 (as a rule, the concentration giving half of the maximal effect) was at most 100 nM and the “Nanostring Ymax obs (%)” value is “+++ (Nanostring Ymax greater than 100.0)”.

Take `CCN1C(=O)[C@@H](NC(=O)c2cccc(C(F)(F)F)c2)[C@@H](C2CC2)c2c(C(=O)N(C)[C@H](C)C#N)nn(C3CCOCC3)c21` [Compound I-422]: the IC50 in experiment [1] was at most 100 nM. In experiment [2], the concentration giving a half-maximal response (EC50) lay within 100 to 1000 nM and the “Nanostring Ymax obs (%)” value is on record as “+++ (Nanostring Ymax greater than 100.0)”.

For the molecule `CCc1cccc(C(=O)N[C@@H]2C(=O)N(CC)c3c(c(C(=O)N4[C@H](C#N)C[C@H]5C[C@H]54)nn3C3CCOCC3)[C@@H]2C2CC2)c1` [Compound I-552, N-((4S,5S)-3-((1R,3S,5R)-3-cyano-2-azabicyclo[3.1.0]hexane-2-carbonyl)-4-cyclopropyl-7-ethyl-6-oxo-1-(tetrahydro-2H-pyran-4-yl)-4,5,6,7-tetrahydro-1H-pyrazolo[3,4-b]pyridin-5-yl)-3-ethylbenzamide], the IC50 in experiment [1] is at most 100 nM. In experiment [2], the EC50 was at most 100 nM and the “Nanostring Ymax obs (%)” value was “+++ (Nanostring Ymax greater than 100.0)”.

On to `CCN1C(=O)[C@@H](NC(=O)c2cccc(C(F)(F)F)c2)[C@@H](C2CC2)c2c(C(=O)N3CCNC[C@H]3C#N)nn(C3CCOCC3)c21` [Compound I-582], for which, in experiment [1], the half-maximal inhibitory concentration (IC50) was at most 100 nM. Further, in experiment [2], the EC50 lay in the range of 100 to 1000 nM and the “Nanostring Ymax obs (%)” value is reported as “+++ (Nanostring Ymax greater than 100.0)”.

Turning to `CCN1C(=O)[C@@H](NC(=O)c2cccc(C(F)(F)F)c2)[C@@H](C2CC2)c2c(C(=O)N3CS(=O)(=O)C[C@H]3C#N)nn(C3CCOCC3)c21` [Compound I-617], the IC50 in experiment [1] was at most 100 nM. For the same molecule, the “Nanostring Ymax obs (%)” value in experiment [2] was “+ (Nanostring Ymax greater than or equal to 0.0 and less than or equal to 50.0)”.

`CCN1C(=O)[C@@H](NC(=O)c2cccc(C(F)(F)F)c2)[C@@H](C2CCC2)c2c(C(=O)N3CCC[C@H]3C#N)nn(C3CCOCC3)c21` [Compound I-692] had an IC50 in experiment [1] of at most 100 nM. Further, in experiment [2], the EC50 is at most 100 nM and the “Nanostring Ymax obs (%)” value is “+++ (Nanostring Ymax greater than 100.0)”.
